MIC and Ratio data for 5 compounds are collected here from ChEMBL document CHEMBL2086231, “Novel pleuromutilin derivatives as antibacterial agents: synthesis, biological evaluation and molecular docking studies” (2012).

In brackets after ≈: the same amount, converted by molar mass.

Assay type in all cases: functional
The subject of experiment [1] is Staphylococcus aureus. The experiment in a line: Antibacterial activity against methicillin-sensitive Staphylococcus aureus isolate cpu0211 after 18 to 20 hrs by agar dilution method. In general terms: In agar dilution the substance is mixed into plates at graded concentrations.
The test system of experiment [2] is Staphylococcus aureus. The experiment in a line: Antibacterial activity against methicillin-sensitive Staphylococcus aureus isolate cpu0587 after 18 to 20 hrs by agar dilution method.
In experiment [3] the test system is Staphylococcus aureus. As to the kind of experiment: Antibacterial activity against methicillin-sensitive Staphylococcus aureus isolate cpu1044 after 18 to 20 hrs by agar dilution method.
The subject of experiment [4] is Staphylococcus aureus. The experiment in a line: Antibacterial activity against methicillin-sensitive Staphylococcus aureus isolate cpu1344 after 18 to 20 hrs by agar dilution method.
Experiment [5] concerns Staphylococcus aureus. As to the kind of experiment: Antibacterial activity against methicillin-resistant Staphylococcus aureus isolate cpu0446 after 18 to 20 hrs by agar dilution method.
Experiment [6] deals with Staphylococcus aureus. The experiment in a line: Antibacterial activity against methicillin-resistant Staphylococcus aureus isolate cpu0887 after 18 to 20 hrs by agar dilution method.
For experiment [7], the system named is Staphylococcus aureus. The experiment in a line: Antibacterial activity against methicillin-resistant Staphylococcus aureus isolate cpu1098 after 18 to 20 hrs by agar dilution method.
The subject of experiment [8] is Staphylococcus aureus. The experiment in a line: Antibacterial activity against methicillin-resistant Staphylococcus aureus isolate cpu3256 after 18 to 20 hrs by agar dilution method.
For experiment [9], the system named is Staphylococcus epidermidis. The experiment in a line: Antibacterial activity against methicillin-sensitive Staphylococcus epidermidis isolate cpu0315 after 18 to 20 hrs by agar dilution method.
Experiment [10] has as its system Staphylococcus epidermidis. The experiment in a line: Antibacterial activity against methicillin-sensitive Staphylococcus epidermidis isolate cpu0347 after 18 to 20 hrs by agar dilution method.
In experiment [11] the test system is Staphylococcus epidermidis. As to the kind of experiment: Antibacterial activity against methicillin-sensitive Staphylococcus epidermidis isolate cpu2089 after 18 to 20 hrs by agar dilution method.
The test system of experiment [12] is Staphylococcus epidermidis. The experiment in a line: Antibacterial activity against methicillin-sensitive Staphylococcus epidermidis isolate cpu1561 after 18 to 20 hrs by agar dilution method.
The subject of experiment [13] is Staphylococcus epidermidis. As to the kind of experiment: Antibacterial activity against methicillin-resistant Staphylococcus epidermidis isolate cpu2623 after 18 to 20 hrs by agar dilution method.
Experiment [14] concerns Staphylococcus epidermidis. The experiment in a line: Antibacterial activity against methicillin-resistant Staphylococcus epidermidis isolate cpu3889 after 18 to 20 hrs by agar dilution method.
The subject of experiment [15] is Staphylococcus epidermidis. The experiment in a line: Antibacterial activity against methicillin-resistant Staphylococcus epidermidis isolate cpu3569 after 18 to 20 hrs by agar dilution method.
The subject of experiment [16] is Staphylococcus epidermidis. The experiment in a line: Antibacterial activity against methicillin-resistant Staphylococcus epidermidis isolate cpu2736 after 18 to 20 hrs by agar dilution method.
Experiment [17] concerns Staphylococcus aureus. The experiment in a line: Ratio of amoxicillin MIC to compound MIC for methicillin-resistant Staphylococcus aureus isolate cpu0446.
In experiment [18] the test system is Staphylococcus aureus. The experiment in a line: Ratio of amoxicillin MIC to compound MIC for methicillin-resistant Staphylococcus aureus isolate cpu0887.
Experiment [19] relates to Staphylococcus aureus. As to the kind of experiment: Ratio of amoxicillin MIC to compound MIC for methicillin-resistant Staphylococcus aureus isolate cpu1098.
Experiment [20] has as its system Staphylococcus aureus. As to the kind of experiment: Ratio of amoxicillin MIC to compound MIC for methicillin-resistant Staphylococcus aureus isolate cpu3256.
The subject of experiment [21] is Staphylococcus aureus. As to the kind of experiment: Ratio of tiamulin MIC to compound MIC for methicillin-resistant Staphylococcus aureus isolate cpu0446.
Experiment [22] concerns Staphylococcus aureus. As to the kind of experiment: Ratio of tiamulin MIC to compound MIC for methicillin-resistant Staphylococcus aureus isolate cpu0887.
Experiment [23] relates to Staphylococcus aureus. As to the kind of experiment: Ratio of tiamulin MIC to compound MIC for methicillin-resistant Staphylococcus aureus isolate cpu1098.
Experiment [24] has as its system Staphylococcus aureus. The experiment in a line: Ratio of tiamulin MIC to compound MIC for methicillin-resistant Staphylococcus aureus isolate cpu3256.

In general, MIC refers to the lowest concentration that inhibits growth of the organism. Higher therefore signals a less susceptible organism. In the case of `C=C[C@]1(C)C[C@@H](OC(=O)CSCc2csc(NC(=O)CN(CCC)CCC)n2)[C@]2(C)[C@H](C)CC[C@]3(CCC(=O)[C@H]32)[C@@H](C)[C@@H]1O`, the minimum inhibitory concentration (MIC) in experiment [1] was 0.5 µg/mL (≈ 0.772 µM); in experiment [2], 0.5 µg/mL (≈ 0.772 µM); in [3], 0.5 µg/mL (≈ 0.772 µM); in [4], 1 µg/mL (≈ 1.54 µM); in experiment [5], 0.5 µg/mL (≈ 0.772 µM); in experiment [6] it was 0.5 µg/mL (≈ 0.772 µM). Moreover, the minimal inhibitory concentration (MIC) is 1 µg/mL (≈ 1.54 µM) in experiment [7]; 1 µg/mL (≈ 1.54 µM) in [8]; 8 µg/mL (≈ 12.3 µM) in experiment [9]; 0.5 µg/mL (≈ 0.772 µM) in experiment [10]; 0.5 µg/mL (≈ 0.772 µM) in [11]; 4 µg/mL (≈ 6.17 µM) in experiment [12]. Moreover, the MIC is 0.5 µg/mL (≈ 0.772 µM) in [13], 2 µg/mL (≈ 3.09 µM) in experiment [14], 4 µg/mL (≈ 6.17 µM) in [15] and 2 µg/mL (≈ 3.09 µM) in experiment [16].

For `C=C[C@]1(C)C[C@@H](OC(=O)CSCc2csc(NC(=O)CNC3CCCCC3)n2)[C@]2(C)[C@H](C)CC[C@]3(CCC(=O)[C@H]32)[C@@H](C)[C@@H]1O`, the minimum inhibitory concentration (MIC) worked out at 0.25 µg/mL (≈ 0.387 µM) in [1]; 0.25 µg/mL (≈ 0.387 µM) in [2]; 0.5 µg/mL (≈ 0.774 µM) in experiment [3]; 0.5 µg/mL (≈ 0.774 µM) in experiment [4]; 0.5 µg/mL (≈ 0.774 µM) in experiment [5]; 0.5 µg/mL (≈ 0.774 µM) in experiment [6]. For the same compound, the minimal inhibitory concentration (MIC) in experiment [7] came out at 0.25 µg/mL (≈ 0.387 µM); in experiment [8], 0.5 µg/mL (≈ 0.774 µM); in experiment [9], 1 µg/mL (≈ 1.55 µM); in experiment [10], 0.5 µg/mL (≈ 0.774 µM); in experiment [11] it was 0.25 µg/mL (≈ 0.387 µM); in experiment [12], 8 µg/mL (≈ 12.4 µM). In addition, the MIC stood at 0.25 µg/mL (≈ 0.387 µM) in experiment [13], 1 µg/mL (≈ 1.55 µM) in experiment [14], 0.5 µg/mL (≈ 0.774 µM) in [15] and 1 µg/mL (≈ 1.55 µM) in experiment [16].

For the compound `C=C[C@]1(C)C[C@@H](OC(=O)CSCc2csc(N)n2)[C@]2(C)[C@H](C)CC[C@]3(CCC(=O)[C@H]32)[C@@H](C)[C@@H]1O`, the minimal inhibitory concentration (MIC) in experiment [1] came to 0.5 µg/mL (≈ 0.987 µM); in [2], 2 µg/mL (≈ 3.95 µM); in [3], 2 µg/mL (≈ 3.95 µM); in experiment [4] it was 0.125 µg/mL (≈ 0.247 µM); in experiment [5] it was 0.25 µg/mL (≈ 0.493 µM); in [6] it was 0.0625 µg/mL (≈ 0.123 µM). In addition, the MIC in experiment [7] stood at 0.5 µg/mL (≈ 0.987 µM); in [8], 0.5 µg/mL (≈ 0.987 µM); in experiment [9], 0.125 µg/mL (≈ 0.247 µM); in [10] it was 0.125 µg/mL (≈ 0.247 µM); in experiment [11], 0.125 µg/mL (≈ 0.247 µM); in [12], 0.125 µg/mL (≈ 0.247 µM). The MIC in experiment [13], in experiment [14], in [15] and in experiment [16] was 0.125 µg/mL (≈ 0.247 µM) each time. The Ratio in experiment [17], in experiment [18], in experiment [19], in experiment [20], in [21] and in experiment [22] was 4 in each case. In addition, the Ratio in experiment [23] and in experiment [24] was 4 throughout.

`C=C[C@]1(C)C[C@@H](OC(=O)CSCc2csc(NC(=O)CN3CCCC3)n2)[C@]2(C)[C@H](C)CC[C@]3(CCC(=O)[C@H]32)[C@@H](C)[C@@H]1O`: the MIC stood at 0.125 µg/mL (≈ 0.202 µM) in [1]; 0.125 µg/mL (≈ 0.202 µM) in [2]; 0.25 µg/mL (≈ 0.405 µM) in experiment [3]; 0.25 µg/mL (≈ 0.405 µM) in experiment [4]; 0.25 µg/mL (≈ 0.405 µM) in [5]; 0.5 µg/mL (≈ 0.809 µM) in experiment [6]. The minimum inhibitory concentration (MIC) was 0.25 µg/mL (≈ 0.405 µM) in experiment [7]; 0.25 µg/mL (≈ 0.405 µM) in experiment [8]; 2 µg/mL (≈ 3.24 µM) in [9]; 0.25 µg/mL (≈ 0.405 µM) in experiment [10]; 0.125 µg/mL (≈ 0.202 µM) in experiment [11]; 0.5 µg/mL (≈ 0.809 µM) in experiment [12]. The MIC in experiment [13] came out at 0.5 µg/mL (≈ 0.809 µM); in experiment [14], 0.25 µg/mL (≈ 0.405 µM); in experiment [15], 0.5 µg/mL (≈ 0.809 µM); in experiment [16], 0.5 µg/mL (≈ 0.809 µM).

Regarding `C=C[C@]1(C)C[C@@H](OC(=O)CSCc2csc(NC(=O)CN(CCCC)CCCC)n2)[C@]2(C)[C@H](C)CC[C@]3(CCC(=O)[C@H]32)[C@@H](C)[C@@H]1O`, the MIC worked out at 4 µg/mL (≈ 5.92 µM) in experiment [1]; 4 µg/mL (≈ 5.92 µM) in [2]; 4 µg/mL (≈ 5.92 µM) in experiment [3]; 16 µg/mL (≈ 23.7 µM) in [4]; 8 µg/mL (≈ 11.8 µM) in experiment [5]; 32 µg/mL (≈ 47.3 µM) in experiment [6]. Also, the MIC in experiment [7] is 8 µg/mL (≈ 11.8 µM); in [8], 8 µg/mL (≈ 11.8 µM); in experiment [9], 8 µg/mL (≈ 11.8 µM); in experiment [10], 8 µg/mL (≈ 11.8 µM); in experiment [11] it was 4 µg/mL (≈ 5.92 µM); in experiment [12], 16 µg/mL (≈ 23.7 µM). Moreover, the minimal inhibitory concentration (MIC) amounted to 4 µg/mL (≈ 5.92 µM) in experiment [13], 16 µg/mL (≈ 23.7 µM) in experiment [14], 8 µg/mL (≈ 11.8 µM) in [15] and 16 µg/mL (≈ 23.7 µM) in experiment [16].
